Experimental data reported in patent US20240150339A1, “Compounds and Their Use as PDE4 Activators” (Mironid Limited, priority 2021, published 2024).

What was measured:
[1] = target: T1, PDE4C3 (Homo sapiens, UniProt Q08493); test: PDE assay, activation of full-length human PDE4C3 long form ([3H]cAMP radio-assay); type: biochemical; settings: 30 μM test compound; mean % increase in counts over basal activity
T1 construct: Using Full-Length Human PDE4 Isoforms: Long Forms PDE4D5, PDE4C3, PDE4B1 and Short Form PDE4B2; made in house; host or cells: HEK 293 transfected with pcDNA3.1 or pDEST PDE4 expression vector; cytosol fraction of the lysate by analogy to PDE4D5
T1 sequence (Q08493 1-680 isoform Q08493-3): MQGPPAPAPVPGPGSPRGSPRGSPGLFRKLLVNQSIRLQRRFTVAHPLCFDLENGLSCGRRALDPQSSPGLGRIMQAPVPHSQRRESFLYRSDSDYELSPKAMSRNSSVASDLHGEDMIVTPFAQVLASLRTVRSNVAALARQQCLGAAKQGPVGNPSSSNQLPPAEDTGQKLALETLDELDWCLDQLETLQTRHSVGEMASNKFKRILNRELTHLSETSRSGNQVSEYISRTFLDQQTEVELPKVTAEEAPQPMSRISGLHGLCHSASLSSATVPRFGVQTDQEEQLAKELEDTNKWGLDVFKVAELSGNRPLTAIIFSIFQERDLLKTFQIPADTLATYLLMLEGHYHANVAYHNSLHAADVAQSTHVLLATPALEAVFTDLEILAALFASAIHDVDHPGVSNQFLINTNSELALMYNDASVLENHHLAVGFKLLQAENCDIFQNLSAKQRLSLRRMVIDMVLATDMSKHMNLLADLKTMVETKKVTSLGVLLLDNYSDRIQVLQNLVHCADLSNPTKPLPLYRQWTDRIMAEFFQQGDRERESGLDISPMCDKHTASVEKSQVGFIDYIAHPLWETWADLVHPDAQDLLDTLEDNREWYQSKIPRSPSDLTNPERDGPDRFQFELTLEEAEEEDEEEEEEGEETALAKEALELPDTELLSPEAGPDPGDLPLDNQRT
Text: Experiment 1: Measurement of Modulation of Enzyme Activity by PDE4 Long Form Activators of the Present Invention Using Full-Length Human PDE4 Isoforms: Long Forms PDE4D5, PDE4C3, PDE4B1 and Short Form PDE4B2
(Marchmont, R. J. and Houslay, M. D. Biochem. J. 187: 381-92, 1980)
For transient transfection of exogenous PDE4 long isoforms, HEK 293 cells were transfected with pcDNA3.1 or pDEST™ PDE4 expression vectors using Lipofectamine LTX/Plus reagent (Invitrogen) as outlined by the manufacturer. […]
HEK-PDE4D5 cells were seeded out in 100 mm plates and incubated at 37° C. in an atmosphere of 5% CO2, 95% air. Cell lysates were prepared using KHEM buffer [50 mM KCl, 10 mM EGTA, 50 mM HEPES (pH 7.2), 1.92 mM MgCl2].
To prepare the cell lysates, the 100 mm plates containing the cells were placed on ice and washed with ice-cold PBS (phosphate buffered saline, pH 7.4). KHEM buffer (500 μl) was added to the cells. Cells were then scraped off the plate and triturated using a needle (BD Microlance™ 0.8, 40 mm). The lysed cells were then centrifuged at 2000 rpm for 10 minutes to remove cell debris and the supernatant (cell lysate containing recombinant PDE4D5) was transferred to a fresh tube and kept on ice.
The cell lysate containing recombinant PDE4D5 was transferred into a centrifuge tube and placed into an ultracentrifuge (BECKMAN COULTER) and spun at high speed (100,000 g) for 30 minutes at 4° C. The cytosol fraction was then collected and its protein amount determined using a BCA protein assay.
PDE assays were performed in thin walled V-bottomed 96-well plates. The assays were performed at a final concentration of 10 mM Tris/5 mM MgCl2 μlus PDE4D5 cell lysate cytosol fraction, containing over-expressed PDE4D5, with and without test compound. The lysate/compound mix were incubated together for 15 min at room temperature on an orbital shaker prior to addition of [^3H] cAMP (final concentration 1 μM [^3H] cAMP; Perkin Elmer) to a final volume of 50 μl per reaction. The reactions were then incubated for 10 minutes at 30° C., terminated by heating for 2 min at 95° C. and allowed to cool. Snake venom (12.5 μl of 1 mg/ml; Crotalus atrox, Sigma) was then added and the plates were agitated and incubated for a further 15 minutes at 30° C. Dowex ion exchange resin (Sigma, chloride form, 200-400 mesh; 200 μl; prepared as a 1:1 Dowex: water stock, thoroughly re-suspended and diluted 2:1 with ethanol) was then added to each well and the plates incubated for 15 min at room temperature on an orbital shaker ensuring sufficient agitation for resin suspension (550 RPM). The reaction mixture was then transferred to a 96 well filter plate (Millipore; […] pore size) and filtered into a receiving 96-well plate to remove the dowex suspension. 30 μL of the filtered solution was then transferred to the wells of an Opti-plate (Perkin Elmer) 96 well assay plate and 120 μl of Microscint 40 scintillation fluid was added. The plate was then placed on an orbital shaker for 10 min at high speed (900 RPM) to mix the sample with scintillation fluid prior to quantitation using a plate based scintillation counter (Top-Count).
The % increase in counts in the presence of test compound at a particular concentration indicates the % increase in enzyme activity at that concentration.

[2] = test system: PTH-induced cAMP elevation in urine; test: In vivo model of hyperparathyroidism: PTH-induced cAMP elevation in urine in the anaesthetised rat; settings: i.v. infusion, PTH challenge, urine collected from 90 to 120 min, result in words
Text: Within the kidney, the binding of parathyroid hormone (PTH) to PTH receptors results in the Gas-mediated elevation of intracellular cAMP. This increase of intracellular cAMP results in extrusion of cAMP to the urine (Yates et al., J Clin Invest 81: 932-938, 1988). This experiment is based upon a modified Ellsworth-Howard assay (Kruse, K. and Kracht, U., European Journal of Pediatrics 146: 373-377, 1987) and conducted in anaesthetized rats. In this experiment, rats were anaesthetized using isoflurane and catheterised to allow the collection of urine from the bladder. After an initial stabilization period, test compounds were administered by i.v. infusion (modelled to steady state) from time 0-120 min. PTH challenge infusion (33 ug/kg/hour) was started after 60 min of test compound infusion and sustained for one hour (60-120 min). Urine collection was conducted in 30-minute periods. Urine cAMP levels were assessed by ELISA (R&D systems). Urine samples were prepared for analysis as per the manufacturer's instructions. A standard curve for cAMP was assayed for each experiment and samples were assessed using a standard dilution range of 1:2, 1:4, 1:8 and 1:16, ensuring that the resulting data remained on the linear portion of the standard curve. […] Urine cAMP concentration remained below 50,000 pmol/mL. […]

Cc1ncccc1-c1nc2ccc(C(=O)N[C@H]3CCOc4ccccc43)cc2s1 [Example 7, (S)-N-(chroman-4-yl)-2-(2-methylpyridin-3-yl)benzo[d]thiazole-6-carboxamide]
activation at 30 µM [1]: 105% | Inhibition of PTH-induced cAMP elevation in rat urine (FIG. 3) [2]: inhibition
